In patent US12553903B2, “Ivaltinostat combination therapy for treating pancreatic cancer” (CG Pharmaceuticals, Inc, priority 2023, dated 2026):

Tests used:
[1] = tested on: metastatic pancreatic cancer; details: first line; cited from earlier work
advanced PDAC [2] = details: combined with gemcitabine; cited from earlier work
[3] = tested on: germline BRCA-mutated metastatic pancreatic cancer; details: cited from earlier work
pancreatic cancer = details: 1250 mg/m^2 twice daily for 2 weeks followed by a 1-week rest, first line; cited from earlier work
[4] = tested on: patients with advanced PDAC; test: Phase II safety and adverse events (NCI-CTCAE v4.0); type: in vivo; details: for patients with dose reduced due to occurrence of AEs: three of 24 patients
Protocol: (§1) Tumor evaluation was performed at baseline, at the end of every two cycles, and/or at the end of the trial. For patients with measurable/non-measurable lesions, the Response Evaluation Criteria in Solid Tumors version 1.1 was used to evaluate target/non-target lesions. Serial measurements of carbohydrate antigen 19-9 (CA19-9) levels were performed at baseline and at the beginning of each treatment cycle. Patients were followed up for survival until death or study closure. Safety evaluation included vital signs, adverse events (AEs), adverse drug reactions, serious AEs, ECG, and clinic al laboratory tests, which were performed on days 1, 8 and 15 each cycle. AEs were graded according to the Common Terminology Criteria for Adverse Events, version 4.0, by the National Cancer Institute.
(§2) Full analysis set (FAS), per protocol (PP), and safety set analysis were defined according to the study protocol. FAS was defined as patients who had been evaluated for tumor response at least once after baseline. The PP analysis set included patients who received at least 70% and more of the intended study drug throughout the treatment period and without any significant violation of the protocol.

[5] = tested on: PDAC after gemcitabine-based therapy; details: with bortezomib, seven patients enrolled; cited from earlier work
advanced PDAC [6] = details: with gemcitabine; cited from earlier work
[7] = tested on: patients with unresectable pancreatic ductal adenocarcinoma (PDAC); type: in vivo
Description: The present disclosure discloses a phase I/II study that evaluated the safety and efficacy of the histone deacetylase (HDAC) inhibitor, ivaltinostat, in combination with gemcitabine and erlotinib for advanced pancreatic ductal adenocarcinoma (PDAC). Patients diagnosed with unresectable, histologically confirmed PDAC who had not undergone previous therapy were eligible. […] In phase II, patients received a six-cycle treatment with the MTD of ivaltinostat determined in phase I. The primary endpoint was the objective response rate (ORR). Secondary endpoints included overall survival (OS), disease control rate (DCR), and progression-free survival (PFS). The MTD of ivaltinostat for the phase II trial was determined to be 250 mg/m^2. In phase II, 24 patients were enrolled. The median OS and PFS were 8.6 (95% confidence interval [CI]: 5.3-11.2) and 5.3 months (95% CI: 3.7-5.8). Of the 16 patients evaluated for response, ORR and DCR were 25.0% and 93.8% with a median OS/PFS of 10.8 (95% CI: 8.3-16.7)/5.8 (95% CI: 4.6-6.7) months.
One study disclosed herein was a single-arm phase I/II clinical study. The study evaluated the efficacy and safety of ivaltinostat in combination with gemcitabine and erlotinib for advanced pancreatic cancer. […] The DLT was assessed according to the National Cancer Institute Common Toxicity Criteria version 4.0. […]

clinical = details: human, in vivo, iv
Protocol: The MTD was defined as the dose at which one or zero patients developed a DLT among six-patient cohort. Based on the 3+3 dose escalation design, each cohort consists of three or six subjects. If one in three subjects had experienced DLT in a specific dose, the dose was administered to an additional three subjects and a total of six patients were checked for the occurrence of DLT. If two or more subjects in any cohort had experienced a DLT, the previous dose was considered MTD, and the dose escalation ended. […] Gemcitabine and erlotinib were administered as fixed doses; gemcitabine (1000 mg/m^2 intravenously), and erlotinib (100 mg/day orally), whereas ivaltinostat was administered according to the dose level for each cohort. Each cycle consisted of 28 days. Both ivaltinostat and gemcitabine were administered on days 1, 8, and 15 and erlotinib was administrate d daily for each 28-day cycle.

[8] = tested on: advanced pancreatic ductal adenocarcinoma (PDAC); test: Phase II efficacy (ORR, DCR, OS, PFS); type: in vivo, human
Protocol: Both ivaltinostat and gemcitabine were administered via the same protocol as that in the phase I study, until development of unacceptable toxicity or disease progression. The entire treatment period was six cycles and could be extended to 12 cycles if the patients wanted to continue the regimen and the principal investigator agreed. Tumor assessment was evaluated at the end of every two cycles. Dose reduction or delay could be applied for intolerant patients according to the study protocol.
The primary endpoint was the ORR, which was defined as the rate (%) of patients who had best tumor assessment with complete response (CR) or partial response (PR) during the treatment period. Secondary endpoints included disease control rate (DCR), OS, and progression-free survival (PFS). DCR was defined as the rate (%) of patients who had best tumor assessment with CR, PR, or stable disease (SD) during the treatment period. OS was defined as the time from the date of the first enrollment to the date of death from any cause. Patients who were still alive or withdrew at the date of cut off were censored. PFS was defined as the time from the date of the first enrollment to the date of tumor progression or to the date of death from any cause. Patients were followed up for survival until death, withdrawal, or study closure.
as §1
as §2, with “the protocol. The safety cohort included all patients who had received the study drug at least once.” for “the protocol.”
Statistical Analysis: To identify MTD and DLT, the 3+3 dose escalation design was utilized and based on the method of determining MTD described above. In total, 10 patients were enrolled in the phase I study. The estimated sample size for the phase II study after the determination of MTD was calculated based on Simon's 2 stage design25 with a reference of published data of 8.6% ORR from a phase III randomized controlled trial of gemcitabine and erlotinib combination therapy. Assuming a difference in response probability of study drug=20%, α=0.05, and statistical power=90%, the estimated minimally required sample size for phase II study based on binomial distribution probability may be 9 for initial stage and increase to a total of 24 patients if more than one patient had responded to the study drug during the initial stage. The safety analysis included all patients who had received a single dose of the study drug. The main efficacy analysis was based on the FAS population, defined as a group of patients who had received at least single dose of study drug and had at least one tumor response evaluation after the baseline assessment.

[9] = Grade 3, treatment-related, phase II (n = 24)
[10] = Grade 4, treatment-related, phase II (n = 24)
[11] = Total grade 3 and 4, treatment-related, phase II (n = 24)
[12] = FAS analysis (n=16), with gemcitabine + erlotinib

FOLFIRINOX
median progression-free survival (PFS) [1]: 6.4 months
overall survival (OS) [1]: 11.1 months

CC(=O)Nc1ccc(C(=O)Nc2ccccc2N)cc1 [tacedinaline]
clinical benefit vs gemcitabine alone (advanced PDAC [2]): no advantage over gemcitabine alone

O=C(c1cc(Cc2n[nH]c(=O)c3ccccc23)ccc1F)N1CCN(C(=O)C2CC2)CC1 [olaparib]
median PFS ([3]; maintenance after ≥16 weeks of platinum-based therapy, gBRCA mutations, placebo 3.8): 7.4 months
HR for PFS vs. placebo ([3]; p=0.004): 0.53

CCCCCOC(=O)Nc1nc(=O)n([C@@H]2O[C@H](C)[C@@H](O)[C@H]2O)cc1F [Capecitabine, capecitabine]
efficacy and tolerability (pancreatic cancer): effective and tolerable

Nc1ccn([C@@H]2O[C@H](CO)[C@@H](O)C2(F)F)c(=O)n1 [gemcitabine, reference compound]
patients with dose reduced due to occurrence of AEs ([4]; phase II): 12.5%

Cc1[nH]c2ccccc2c1CCNCc1ccc(/C=C/C(=O)NO)cc1 [panovinostat]
study outcome [5]: suspended due to lack of response and toxicity

C#Cc1cccc(Nc2ncnc3cc(OCCOC)c(OCCOC)cc23)c1 [erlotinib, reference compound]
patients with dose reduced ([4]; phase II, 24 patients): no patient received a reduced dose

Nc1ccccc1NC(=O)c1ccc(CNc2nccc(-c3cccnc3)n2)cc1 [mocetinostat]
clinical activity and toxicity (advanced PDAC [6]): showed only limited clinical activity

CN(C)CCCNC(=O)/C(=C/CCCCC(=O)NO)COc1cccc2ccccc12.O=P(O)(O)O [ivaltinostat, (E)-N1-(3-(dimethylamino)propyl)-N8-hydroxy-2-((naphthalen-1-yloxy)methyl)oct-2-enediamide phosphate]
dose-limiting toxicity (DLT) ([7]; human, in vivo, 28 day): One DLT, a febrile neutropenia of grade 3
maximum tolerable dose (MTD) / recommended dose for phase II ([7]; iv days 1, 8, 15 with gemcitabine 1000 mg/m2 iv and erlotinib 100 mg/day orally, 28-day cycle): 250 mg/m^2
Anemia, % of patients [4, 9]: (16.7) %
Anemia, number of patients [4, 9]: 4
Anorexia, % of patients [4, 9]: (8.3) %
Anorexia, number of patients [4, 9]: 2
Fatigue, % of patients [4, 9]: (8.3) %
Fatigue, number of patients [4, 9]: 2
Febrile neutropenia, % of patients [4, 9]: (8.3) %
Febrile neutropenia, number of patients [4, 9]: 2
Neutropenia, % of patients [4, 9]: (12.5) %
Pneumonia, number of patients [4, 9]: 0
Thrombocytopenia, % of patients [4, 9]: (16.7) %
Thrombocytopenia, number of patients [4, 9]: 4
Neutropenia, number of patients ([4]; Grade 3, treatment-related, phase II (n = 24), with gemcitabine + erlotinib): 3
Anemia, number of patients [4, 10]: 0
Anorexia, number of patients [4, 10]: 0
Fatigue, number of patients [4, 10]: 0
Febrile neutropenia, number of patients [4, 10]: 0
Neutropenia, % of patients [4, 10]: (20.8) %
Neutropenia, number of patients [4, 10]: 5
Pneumonia, % of patients [4, 10]: (4.2) %
Pneumonia, number of patients [4, 10]: 1
Thrombocytopenia, % of patients [4, 10]: (12.5) %
Thrombocytopenia, number of patients [4, 10]: 3
Anorexia, % of patients [4, 11]: (8.3) %
Anorexia, number of patients [4, 11]: 2
Fatigue, % of patients [4, 11]: (8.3) %
Fatigue, number of patients [4, 11]: 2
Febrile neutropenia, % of patients [4, 11]: (8.3) %
Febrile neutropenia, number of patients [4, 11]: 2
Pneumonia, % of patients [4, 11]: (4.2) %
Pneumonia, number of patients [4, 11]: 1
ADR decreased appetite ([4]; phase II, 24 subjects): 11 events
ADR decreased platelet count ([4]; phase II, 24 subjects): 15 events
ADR nausea ([4]; phase II, 24 subjects): 10 events
ADR rash ([4]; phase II, 24 subjects): 11 events
ADR vomiting ([4]; phase II, 24 subjects): 10 events
ADRs with grade 3 or 4 severity ([4]; phase II, 24 subjects): 26
AEs reported ([4]; phase II, 24 subjects): 218
grade 5 (death) events ([4]; phase II, 24 subjects): no grade 5 (death) events
adverse drug reactions (ADRs) ([4]; phase II, all 24 subjects): 114
patients with dose reduced due to occurrence of AEs ([4]; phase II): 12.5%
AUC(0-t) (clinical; 187.5 mg/m2): 28300 ng·h/mL
Cmax (clinical; 187.5 mg/m2): 9550 ng/mL
half-life (clinical; 187.5 mg/m2): 7.3 h
AUC(0-t) (clinical; 250 mg/m2): 35100 ng·h/mL
Cmax (clinical; 250 mg/m2): 8060 ng/mL
half-life (clinical; 250 mg/m2): 5.7 h
AUC(0-t) (clinical; 312.5 mg/m2): 65400 ng·h/mL
Cmax (clinical; 312.5 mg/m2): 12800 ng/mL
half-life (clinical; 312.5 mg/m2): 6.6 h
PRs, % of patients ([8]; FAS analysis (n=16)): 25%
PRs, number of patients ([8]; FAS analysis (n=16)): 4
SDs, % of patients ([8]; FAS analysis (n=16)): 68.8%
SDs, number of patients ([8]; FAS analysis (n=16)): 11
median OS ([8]; FAS analysis (n=16)): 10.8 months
median PFS ([8]; FAS analysis (n=16)): 5.8 months
DCR [8, 12]: 93.8%
ORR [8, 12]: 25.0%
DCR ([8]; PP analysis (n=10)): 100%
ORR ([8]; PP analysis (n=10)): 30%
PRs, % of patients ([8]; PP analysis (n=10)): 30%
PRs, number of patients ([8]; PP analysis (n=10)): 3
SDs, % of patients ([8]; PP analysis (n=10)): 70%
SDs, number of patients ([8]; PP analysis (n=10)): 7
median OS ([8]; PP analysis (n=10)): 11.7 months
median PFS ([8]; PP analysis (n=10)): 5.9 months
median OS ([8]; all patients (n=23), ivaltinostat 250 mg/m^2 + gemcitabine 1000 mg/m^2 + erlotinib 100 mg/day): 8.6 months
median PFS ([8]; all patients (n=23), ivaltinostat 250 mg/m^2 + gemcitabine + erlotinib): 5.3 months
